# Test results as given in patent EP0567026B1, “4,1-Benzoxazepin derivatives as squalene synthase inhibitors and their use in the treatment of hypercholesteremia and as fungicides” (TAKEDA CHEMICAL INDUSTRIES, LTD., priority 1992, dated 1993).
# System: hepatic cholesterogenesis
# Assay: In vivo cholesterogenesis in the liver ([14C]acetate incorporation into digitonin-precipitable hepatic sterols)
# Settings: male Sprague-Dawley rats on 5%-cholestylamine diet for 4 days; dose of 30 mg/kg as suspension in 0.5%-methylcellulose; [14C]acetate i.v. 1 hour after administration, livers removed one hour later; compared to the control group
# Method: Six-week-old, male Sprague-Dawley rats were given 5%-cholestylamine as a dietary admixture for 4 days. They were administered compound at a dose of 30 mg/kg as a suspension of 0.5%-methylcellulose solution and were intravenously given 2 uCi of [^14C]acetate 1 hour after the administration. One hour later, rats were sacrificed and livers were removed. Hepatic sterols were extracted with petroleum ether after saponification, and the radioactivity of digitonin-precipitable fraction was measured. Example 1-(4) inhibited the hepatic cholesterogenesis by 38% compared to the control group given only […] solution.
smiles,measurement,value
CCOC(=O)CC1OC(c2ccccc2Cl)c2cc(Cl)ccc2N(CC(C)(C)C)C1=O (stereo not shown) [Example 1-(4)],inhibited the hepatic cholesterogenesis,38%
